{"source": "patent US9072730B2", "about": "“Method of improving cognitive functions in individuals with down syndrome and/or alzheimer's disease” (The Board of Trustees of the Leland Stanford Junior …, priority 2009, dated 2015)", "key": {"acute hippocampal slices": {"tested_on": "acute hippocampal slices", "test": "Evoked field potentials in acute hippocampal slices (dentate gyrus)", "parameters": "species or system mouse", "description": "Three and 6-month-old 2N and Ts65Dn mice were anesthetized with isoflurane before decapitation. The brain was quickly removed and immersed for 2-3 min in ice-cold artificial CSF (ACSF) [containing (in mM): 119 NaCl, 2.5 Kcl, 2.5 CaCl2, 1.3 MgSO4, 1 NaH2PO4, 26 NaHCO3, and 10 glucose], osmolarity 310, continuously bubbled with 95% 02 and 5% CO2, pH 7.4. The HC was extracted and cut in ice-cold ACSF with a vibratome (Leica 1000; Leica, Nussloch, Germany) into 350-μm-thick transverse slices, which were allowed to recover in oxygenated ACSF at 32° C. for 30 min, and then at room temperature for an additional 1-10 hr before experimental recordings. Slices were transferred into the recording chamber and superfused with ACSF at a constant rate of 2.5 ml/min at a temperature of 32° C. Recording electrodes were made of borosilicate glass capillaries (1B150F, World Precision Instruments, Sarasota, Fla.) and were filled with 2M NaCl (resistance […]). Mono polar stimulating electrode was maid of Pt/Ir wires with diameter 25.4 μm (PTT0110, World Precision Instruments, Sarasota, Fla.) and had 100-μm-long exposed tip. The stimulating electrode was inserted under visual control perpendicular to the slice surface into the middle molecular layer (MML), and the recording electrode into the granule cell layer of the DG upper blade. The distance between the electrodes was 250-300 μm. Testing stimuli evoked field responses with population spike amplitudes 65-75% of maximum. The amplitude of the population spike was measured as follows: a line was drawn at the base of the population spike connecting the first and second peaks of the field response, a second line was drawn at the peak of the population spike (i.e., at the peak of the downward deflection), and at the peak of the spike, a line was drawn vertically between these two lines, thus giving the amplitude of the population spike. The magnitude of the fEPSP was measured as the initial slope of the linear part of the fEPSP, which occurred 0.1-1 ms after the presynaptic volley. […]"}, "Ts65Dn mice [1]": {"tested_on": "Ts65Dn mice", "test": "Nesting behavior analysis", "assay_type": "in vivo, mouse", "description": "The nesting experiment was performed using 10 pairs of 6-month-old male Ts65Dn (CD=10, CD+L-DOPS=10) and 2N (CD=10, CD+L-DOPS=10) mice. The nesting behavior was analyzed in three different periods (sham, drug and no treatment): Each mouse was placed in individual mouse cages for 4 days. On day 5, each mouse was injected subcutaneously at 1 PM with 50 μl/g of (2.5 mg/ml) carbidopa (Sigma) and returned to their individual cages. The next day, mice were injected the same amount of carbidopa as the day before at 1 PM. At 6 PM, the mice were transferred to a rat cage and one nestlet was placed in each cage. Next morning, the nesting was scored by three investigators blind to the genotype. This was followed by weighing the remaining nestlets. Following the sham experiment, mice were returned to their individual mouse cages without any nestlets for 6 days. On day 7, the mice were injected subcutaneously (50 μl/g) of a combination of (20 mg/ml) L-DOPS and carbidopa (2.5 mg/ml) at 1 PM and were returned to their individual mouse cages. Next day the injection was repeated at 1 PM and at 6 PM the mice were transferred to clean rat cage with one nestlet. The quality and quantity of nesting was scored the morning after. The mice were kept in individual cages for two weeks to minimize the effects of L-DOPS treatment on nesting. […] The quality and quantity of nesting was scored the morning after."}, "[2]": {"test": "Norepinephrine and L-DOPS determination in tissue by UV-HPLC", "assay_type": "in vivo, mouse", "description": "Mice were deeply anesthetized using sodium pentobarbital (200 mg/kg i.p.) and brains were extracted immediately. The right hippocampal region dissected out on ice, weighed, and frozen shortly after. The rest of the right hemisphere was also weighed and collected. For homogenization, 1 ml of ice-cold 0.05 M phosphoric acid (Sigma) with 10 μl of […] of 3,4-Dihydrxybenzylamine hydrobromide (DHBA; Sigma) used as an internal standard. The tissue samples were sonicated for 3 seconds on ice. The resulting homogenates were centrifuged at 15,000 g for 15 minutes at 4° C. The resulting supernatant was transferred to a conical tube containing 1 ml of 3M tris (pH: 8.6) with 90 mg acid-washed aluminum oxide (Sigma). The mixture was rotated at 4° C. overnight. The alumina was centrifuged for 10 seconds, and washed briefly with 6 mM tris (pH: 8.6) and 3 changes of water (HPLC grade). After final centrifugation, the resulting precipitate was mixed with 1.8 ml of 0.05M H3PO4 (Sigma, puriss>99%) for 30 minutes at 4° C. The solution was filtered with a 0.2 μm filter and used for UV-based HPLC. 4.5 months-old (N=4 pairs of 2N and Ts65Dn) and 18 months (2N; N=8 and Ts65Dn; N=6) were used for this study.\nA UV-HPLC machine (Varian, Chicago) equipped with an auto sampler and 2 pumps was used for this study. The machine was connected to a Varian column (Pursuit PFP, 150 mm×4.6 mm, 5 μm, A3050150×046) optimized for catecholamine measurements in aqueous conditions. The mobile phase was consisted of 60% 0.1M citric acid (Sigma) and 40% 0.1M Na2HPO4 both in 0.3 mM HPLC-grade sodium octyl sulfate salt (Sigma) (7). The mobile phase was degassed using 0.2 μm filter and refreshed every week. The flow rate was set at 1.0 ml/min at room temperature and the detection was performed at 270 nm. To achieve maximum performance, the mobile phase was pumped at 0.1 ml/min flow the night before the experiment. The column was washed thoroughly with 50% methanol after each experiment. To calculate the amounts of catecholamines, the height of the peak generated by DHBA, NE, and L-DOPS were measured using Variant software. […]"}, "[3]": {"conditions": "subcutaneous administration; cited from earlier work"}, "[4]": {"conditions": "based on the literature; cited from earlier work"}, "Ts65Dn mice [5]": {"tested_on": "Ts65Dn mice", "test": "Contextual and tone-cued fear conditioning test", "assay_type": "in vivo, mouse", "description": "Contextual and tone-cued fear conditioning tests were performed using the Fear Conditioning Video Tracking System (Med-Associates Inc., St. Albans, Vt.). To reduce the stress, each mouse was handled for 5 days. After that, the mice underwent three days of Training day, Tone-Cued in novel context testing day, and Contextual testing day. In the first day, mice went through the Training session. Prior to conditioning, each mice had 3 min to explore the Test Chamber (baseline activity and then they received five tone-shock pairings). The shock (0.5 mA, 50 Hz, 2 sec) delivered after 18 sec from the end of the tone (70 dB, 2 kHz, 20 sec). Therefore, an empty trace interval interposed between the tone and the shock in each conditional stimulus-unconditional stimulus pairing. On the second day (Tone-cued testing day), mice were placed in the novel context (new olfactory and visual cues) for 3 min and subsequently were presented three tone presentations (same as the Training Day) without any shocks. On the last day of the experiment, mice were placed in the context similar to the Training Day for 5 min without any tones or shocks. The effect of L-DOPS on fear conditioning was investigated by treating Ts65Dn mice and their controls 5 hours before the start of each test. The treated mice underwent three days of Training day, Cued testing day and Contextual testing day. L-DOPS was diluted (20 mg/ml) in 0.2M HCL containing 2 mg/ml ascorbic acid. The pH was neutralized with 10M NAOH just before the injection. To counter the peripheral effects of L-DOPS, S-(−) carbidopa was used. Carbidopa was diluted in the same solution (2.5 mg/ml) as L-DOPS. Two groups (10 pairs each) of 5-6-month-old male Ts65Dn and 2N mice were either injected with carbidopa (2.5 mg/ml) or a combination of 20 mg/ml L-DOPS and 2.5 mg/ml carbidopa (50 μl/g subcutaneously) five hours before the start in all 3 days of the experiment. Six-months-old 2N (CD=13, CD+L-DOpS=11) and Ts65Dn (CD=10, CD+L-DOPS=9) mice were used for this study. The effect of β1-partial agonist (xamoterol) on Ts65Dn mice and their controls […]. Xamoterol hemifumarate (Tocris Bioscience, Ellisville, Mich.) was freshly diluted in saline. Two groups of 9-month-old (19 2N and 15 Ts65Dn) mice were subcutaneously injected either with xamoterol (3 mg/kg) or saline (10 ml/kg) exactly […] before all 3 days of fear conditioning test. Nine-months-old 2N (saline=4, xamoterol=8), and Ts65Dn (saline=4, xamoterol=6) mice were used for this study. The data tested using one-way analysis of variance (ANOVA) between the genotypes. The significance of genotype and treatment effects was confirmed by a non-parametric Mann-Whitney U-tests."}}, "note": "“Also recorded” adds a separate entry of the source."}
{"smiles": "CC(C)NCC(O)c1ccc(O)c(O)c1", "note": "(stereo not drawn) [ISO]", "values": [{"measurement": "effect on slope of fEPSPs, Ts65Dn versus 2N", "setting": "acute hippocampal slices; 6-month-old mice, stimulation of middle molecular layer, recording in granule cell layer", "result": "stronger effects on slope of fEPSPs in Ts65Dn than 2N mice"}, {"measurement": "recorded response 30 min after application, Ts65Dn versus 2N", "setting": "acute hippocampal slices; ISO 10 μM, 10 min, slices of 6-month old Ts65Dn and age-matched 2N", "result": "much stronger response in Ts65Dn than 2N mouse"}, {"measurement": "change in population spike amplitude of fEPSPs", "setting": "acute hippocampal slices; ISO 10 μM, 3- and 6-months-old 2N and Ts65Dn mice", "result": "significant increase in population spike amplitude"}, {"measurement": "duration of enhancement of population spike amplitude", "setting": "acute hippocampal slices; ISO 10 μM, 3-month-old 2N mice", "result": "at least 30 min"}, {"measurement": "duration of increase of population spike amplitude", "setting": "acute hippocampal slices; ISO 10 μM, 6 months old mice", "result": "> 1", "unit": "h"}, {"measurement": "slope and amplitude of excitatory postsynaptic potentials (EPSPs)", "setting": "acute hippocampal slices; slices at age 3 months and 6 months, 2N and Ts65Dn mice", "result": "increase in both the slope and amplitude"}, {"measurement": "EPSP responses in Ts65Dn slices compared with 2N", "setting": "acute hippocampal slices; slices at age 6 months", "result": "consistently more robust"}]}
{"smiles": "N[C@H](C(=O)O)[C@H](O)c1ccc(O)c(O)c1", "note": "[L-DOPS, L-threo-3,4-dihydroxyphenylserine]", "values": [{"measurement": "nesting behavior", "setting": "Ts65Dn mice [1]; drug period: L-DOPS 20 mg/ml + carbidopa 2.5 mg/ml, 50 μl/g s.c., p=0.0245", "result": "improved nesting; also recorded: significant improvement in the nesting behavior"}, {"measurement": "nesting behavior after cessation of treatment", "setting": "Ts65Dn mice [1]; no treatment (washout) period of two weeks, p=0.0121", "result": "again showed poor nesting behavior; also recorded: vanished 2 weeks later"}, {"measurement": "NE levels in the HC of Ts65Dn mice relative to 2N mice", "setting": "[2]; after L-DOPS 1 mg/g with carbidopa 0.125 mg/g", "result": 96, "unit": "%"}, {"measurement": "L-DOPS levels in tissues", "setting": "[2]; six hours after administration, 2N and Ts65Dn mice, L-DOPS 1 mg/g with carbidopa 0.125 mg/g", "result": "present in all tissues, including brain"}, {"measurement": "L-DOPS tissue levels, difference between genotypes", "setting": "[2]; six hours after administration, 2N vs Ts65Dn, p=0.4894", "result": "no difference between genotypes"}, {"measurement": "time to maximum brain NE levels", "setting": "[3]", "result": "≤ 5", "unit": "h"}, {"measurement": "dose used safely in humans", "setting": "[4]", "result": "up to 1 gram per day"}, {"measurement": "contextual memory / contextual learning (freezing on contextual day)", "setting": "Ts65Dn mice [5]; 6-month-old Ts65Dn mice, 20 mg/ml L-DOPS + 2.5 mg/ml carbidopa, 50 μl/g s.c., 5 hours before each test, control carbidopa alone", "result": "significant improvement in contextual memory; also recorded: found to restore contextual learning; also recorded: able to alleviate cognitive failure; also recorded: contextual learning failure was reversed; also recorded: acted to restore contextual learning"}, {"measurement": "difference in freezing between 2N and Ts65Dn mice in contextual test", "setting": "Ts65Dn mice [5]; L-DOPS + carbidopa treated 2N vs Ts65Dn, One-way ANOVA p=0.5247", "result": "restored fully the difference in freezing; also recorded: no significant difference between the two groups"}, {"measurement": "freezing measured on a minute-by-minute basis in contextual test", "setting": "Ts65Dn mice [5]; L-DOPS + carbidopa treated Ts65Dn mice", "result": "increased freezing following the first minute"}, {"measurement": "reduction of the deficiency in Ts65Dn mice", "setting": "Ts65Dn mice [5]; L-DOPS treatment versus no treatment", "result": 80, "unit": "%"}, {"measurement": "how much less Ts65Dn mice remembered than their controls after treatment", "setting": "Ts65Dn mice [5]; after treatment with L-DOPS, without treatment 44% less", "result": 8, "unit": "%"}]}
{"smiles": "O=C(NCCNCC(O)COc1ccc(O)cc1)N1CCOCC1", "note": "(stereo not drawn) [xamoterol]", "values": [{"measurement": "contextual learning / contextual discrimination (freezing on contextual day)", "setting": "Ts65Dn mice [5]; 9-month-old Ts65Dn mice, xamoterol 3 mg/kg s.c. 1 hour before each test, control saline", "result": "restored failed contextual learning; also recorded: found to restore contextual learning; also recorded: contextual learning failure was reversed; also recorded: acted to restore contextual learning; also recorded: significant improvement; also recorded: significant restoration of contextual discrimination"}, {"measurement": "difference between 2N and Ts65Dn mice in percent of freezing on contextual day", "setting": "Ts65Dn mice [5]; xamoterol treated 2N vs Ts65Dn, ANOVA F=0.392, p=0.844", "result": "no longer any differences were found"}]}
